Source: EP0168733A2, “Process for the preparation of quinolinone and naphthyridoncarboxylic acids” (BAYER AG, priority 1984, dated 1986)
Values after ≈ are worked out from the molar mass of the structure shown.

Legend:
Test in all cases: Agar dilution test (Isosensitest medium / Denley multipoint inoculator), MIC
Format in all cases: cell-based
E. coli Neum. = conditions: Escherichia coli, read-out: Minimale Hemmkonzentration
Excerpt: (§1) In der nachstehenden Tabelle sind die MHK-Werte einiger der erfindungsgemäßen Verbindungen angegeben.

E. coli T 7 = conditions: Escherichia coli, T7, read-out: Minimale Hemmkonzentration
Excerpt: as §1

Klebsiella pneum. 63 = conditions: read-out: Minimale Hemmkonzentration
Excerpt: as §1

Klebsiella pneum. 8085 = conditions: read-out: Minimale Hemmkonzentration
Excerpt: as §1

Proteus morg. 932 = conditions: read-out: Minimale Hemmkonzentration
Excerpt: as §1

Proteus vulg. 1017 = conditions: read-out: Minimale Hemmkonzentration
Excerpt: as §1

Staphylococcus aur. 133 = conditions: read-out: Minimale Hemmkonzentration
Excerpt: as §1

Row | Compound | MIC (E. coli Neum.) | MIC (E. coli T 7) | MIC (Klebsiella pneum. 63) | MIC (Klebsiella pneum. 8085) | MIC (Proteus morg. 932) | MIC (Proteus vulg. 1017) | MIC (Staphylococcus aur. 133)
1 | O=C(O)c1cn(C2CC2)c2cc([N+](=O)[O-])c(Cl)cc2c1=O [Beispiel 1, 6-Chlor-1-cyclopropyl-7-nitro-1,4-dihydro-4-oxo-3-chinolincarbonsäure] | 32 µg/mL (≈ 104 µM) | 64 µg/mL (≈ 207 µM) | > 128 µg/mL | 32 µg/mL (≈ 104 µM) | > 128 µg/mL | > 128 µg/mL | > 128 µg/mL
2 | CN(C)n1cc(C(=O)O)c(=O)c2ccccc21 [Beispiel 4, 1-Dimethylamino-1,4-dihydro-4-oxo-3-chinolincarbonsäure] | 32 µg/mL (≈ 138 µM) | 64 µg/mL (≈ 276 µM) | > 128 µg/mL | 64 µg/mL (≈ 276 µM) | 128 µg/mL (≈ 551 µM) | 128 µg/mL (≈ 551 µM) | > 128 µg/mL
3 | O=C(O)c1cn(C2CC2)c2cccc([N+](=O)[O-])c2c1=O [Beispiel 6, 1-Cyclopropyl-5-nitro-1,4-dihydro-4-oxo-3-chinolincarbonsäure] | 32 µg/mL (≈ 117 µM) | 32 µg/mL (≈ 117 µM) | 128 µg/mL (≈ 467 µM) | 128 µg/mL (≈ 467 µM) | 64 µg/mL (≈ 233 µM) | 64 µg/mL (≈ 233 µM) | > 128 µg/mL
4 | O=C(O)c1cn(C2CC2)c2cc([N+](=O)[O-])ccc2c1=O [Beispiel 7, 1-Cyclopropyl-7-nitro-1,4-dihydro-4-oxo-3-chinolincarbonsäure] |  |  | 0.5 µg/mL (≈ 1.82 µM) | 0.06 µg/mL (≈ 0.219 µM) | 0.25 µg/mL (≈ 0.912 µM) | 0.25 µg/mL (≈ 0.912 µM) | 32 µg/mL (≈ 117 µM)
